# Biological target: T1, α7-subtype of nicotinic receptors (Rattus norvegicus, UniProt Q05941)
# T1 construct: Cerebral cortices from male Wistar rats (150-250 g) are homogenised; from tissue; host or cells: rat cerebral cortex membrane homogenate
# Assay: In vitro inhibition of 3H-α-bungarotoxine binding in rat brain
# Details: rat cerebral cortex homogenate, 3H-α-bungarotoxine 2 nM, 2 hours at 37° C.
# T1 sequence (Q05941 23-502): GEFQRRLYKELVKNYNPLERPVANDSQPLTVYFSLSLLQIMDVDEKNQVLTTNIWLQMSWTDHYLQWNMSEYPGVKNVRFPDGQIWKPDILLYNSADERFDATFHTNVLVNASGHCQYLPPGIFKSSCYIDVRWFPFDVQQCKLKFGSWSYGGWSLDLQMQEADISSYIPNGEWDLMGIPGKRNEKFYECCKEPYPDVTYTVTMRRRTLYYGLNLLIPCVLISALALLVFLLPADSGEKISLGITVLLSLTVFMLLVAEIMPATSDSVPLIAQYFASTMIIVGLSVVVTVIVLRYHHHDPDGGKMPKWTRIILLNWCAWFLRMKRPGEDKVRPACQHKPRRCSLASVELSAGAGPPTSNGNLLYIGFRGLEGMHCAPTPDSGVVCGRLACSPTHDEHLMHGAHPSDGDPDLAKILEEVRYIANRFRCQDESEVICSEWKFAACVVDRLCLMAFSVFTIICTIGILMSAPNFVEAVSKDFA
structure (smiles),measurement,value
"CN1C2CCC1CN(c1ccc(C#Cc3ccccc3)nn1)C2 [Compound B1, 8-Methyl-3-(6-phenylethynyl-pyridazin-3-yl)-3,8-diaza-bicyclo[3.2.1]octane]",IC50,470 nM

# Reference: patent US7662812B2, “Diazabicyclic aryl derivatives and their use as chinolinergic ligands at nicotinic acetylcholine receptors” (Neurosearch A/S, priority 2005, dated 2010)
